According to ChEMBL document CHEMBL1201862, “PubChem BioAssay data set” (2004):
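Compound exposure: 48 hours, 5 concentrations, 96-well plates. GI50 is the concentration that inhibits growth by half.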 Activity calls are given as the source filed them. No stated cut-off is given here; in the data, active = GI50 up to about 1.1 µM and inactive = higher.

What was measured:
Test in all cases: NCI-60 cell line screen, 48 h
[1] = system: BT-549
[2] = system: CCRF-CEM
[3] = system: DU-145
[4] = system: HCT-15
[5] = system: HOP-92
[6] = system: HT-29
[7] = system: M14
[8] = system: MCF7
[9] = system: MDA-N
[10] = system: NCI-H522
[11] = system: NCI/ADR-RES
[12] = system: OVCAR-4
[13] = system: OVCAR-5
[14] = system: OVCAR-8
[15] = system: RPMI-8226
[16] = system: SK-MEL-28
[17] = system: SK-OV-3
[18] = system: SNB-19
[19] = system: T47D
[20] = system: TK-10

| SMILES | GI50 [1] | GI50 [2] | GI50 [3] | GI50 [4] [µM] | GI50 [5] | GI50 [6] | GI50 [7] | GI50 [8] | GI50 [9] | GI50 [10] | GI50 [11] | GI50 [12] | GI50 [13] | GI50 [14] | GI50 [15] | GI50 [16] | GI50 [17] | GI50 [18] | GI50 [19] | GI50 [20] |
| --- | --- | --- | --- | --- | --- | --- | --- | --- | --- | --- | --- | --- | --- | --- | --- | --- | --- | --- | --- | --- |
| COc1ccc2c(c1)CCc1[nH]c3ccccc3c1CCCC2 | > 10 µM (inactive) | > 10 µM (inactive) | > 10 µM (inactive) | > 10 | > 10 µM (inactive) | > 10 µM (inactive) | > 10 µM (inactive) | > 10 µM (inactive) | > 10 µM (inactive) | > 10 µM (inactive) | > 10 µM (inactive) | > 10 µM (inactive) | > 10 µM (inactive) | > 10 µM (inactive) | > 10 µM (inactive) | > 10 µM (inactive) | > 10 µM (inactive) | > 10 µM (inactive) | > 10 µM (inactive) | > 10 µM (inactive) |
| NS(=O)(=O)c1ccc(NC(=O)c2ccc3nc4ccccc4c(Nc4ccc(S(N)(=O)=O)cc4)c3c2)cc1 | > 100 µM (inactive) | > 100 µM (inactive) | > 100 µM (inactive) | > 100 | > 100 µM (inactive) | > 100 µM (inactive) | > 100 µM (inactive) | > 100 µM (inactive) | > 100 µM (inactive) | > 100 µM (inactive) | > 100 µM (inactive) | > 100 µM (inactive) | > 100 µM (inactive) | > 100 µM (inactive) | > 100 µM (inactive) | > 100 µM (inactive) | > 100 µM (inactive) | 42.1 µM (inactive) | > 100 µM (inactive) | > 100 µM (inactive) |
| S=C(N/N=C(/c1ccccc1)c1ccccn1)N(Cc1ccccn1)Cc1ccccn1 | 0.207 µM (active) | < 0.01 µM (active) | 0.564 µM (active) | 0.102 | 0.174 µM (active) | < 0.01 µM (active) | 0.0323 µM (active) | < 0.01 µM (active) | 1.31 µM (inactive) | < 0.0247 µM (active) | 0.0838 µM (active) | 0.507 µM (active) | 0.427 µM (active) | < 0.01 µM (active) | < 0.0302 µM (active) | 1.05 µM (active) | 0.472 µM (active) | 0.444 µM (active) | < 0.0177 µM (active) | 0.236 µM (active) |
| COC(=O)c1cc2c(cc1Cl)Sc1nnc(Nc3ccc(C)cc3)n1S2(=O)=O | 13.4 µM (inactive) | 3.78 µM (inactive) | 2.65 µM (inactive) | 3.97 | 3.66 µM (inactive) | 3.92 µM (inactive) | 12.7 µM (inactive) | 3.72 µM (inactive) | 6.44 µM (inactive) | 2.67 µM (inactive) | 11.1 µM (inactive) | 2.76 µM (inactive) | 17.1 µM (inactive) | 10.5 µM (inactive) | 2.17 µM (inactive) | 9.33 µM (inactive) | 11.9 µM (inactive) | 5.81 µM (inactive) | 1.75 µM (inactive) | 14.3 µM (inactive) |
| CC(CN1CC(=O)NC(=O)C1)N1CC(=O)NC(=O)C1 (stereo not given) [RAZOXANE] | 385 µM (inactive) | 35.5 µM (inactive) | 160 µM (inactive) | 100 | 211 µM (inactive) | 119 µM (inactive) | 217 µM (inactive) | 33.2 µM (inactive) | 182 µM (inactive) | 90.8 µM (inactive) | 243 µM (inactive) | 283 µM (inactive) | 343 µM (inactive) | 460 µM (inactive) | 254 µM (inactive) | 522 µM (inactive) | 299 µM (inactive) | 313 µM (inactive) | 231 µM (inactive) | 168 µM (inactive) |
